# Laboratory results as given in US20110160399A1, “HISTONE MODIFICATION INHIBITOR SPECIFIC TO TARGET GENE” (NIHON UNIVERSITY, priority 2008, published 2011).
# Columns and labels:
# [1] = system: acetylation of histone H3 lysine 9 in the genomic region of the LARP1 gene; experiment: Genomic region-specific acetylation analysis (ChIP, anti-histone H3K9 acetyl antibody), LARP1 gene region; format: cell-based, human; details: HeLa cells, 150 nM, 7 days; FIG. 10
# Description: In a 10% fetal bovine serum-containing DMEM medium prepared to contain the synthesized compound (SAHA+p16 PIP or SAHA+non-targeting PIP) or SAHA at a final concentration of 150 nM, HeLa cells were cultured at 37° C. in the presence of 5% CO2 for 7 days. After culture, 5×10^6 to 1×10^7 confluent cells were harvested in 100 mm diameter cell culture dishes (Corning 430167) and then subjected to chromatin immunoprecipitation assay with a MILIPORE 17-295 Chromatin Immunoprecipitation (ChIP) assay kit.
# The detailed procedures used are as follows. To the harvested cells cultured for 7 days, formalin was added at a final concentration of 1% and incubated at 37° C. for 10 minutes to fix the cells, whereby proteins and DNAs were crosslinked within the cells. Then, glycine was added at a final concentration of 0.25 M and the supernatant was removed, followed by washing the cell layer. Then, the cell layer was treated with 220 μl lysis buffer and the cell lysate was collected with a scraper. […] Real-time RT-PCR.” More specifically, the purified DNA was quantitatively analyzed with SYBR premix EX Taq (TAKARA BIO, Shiga, Japan) in a Thermal Cycler Dice Real-time System TP-800 (TAKARA BIO, Shiga, Japan). […]
# [2] = system: RKO (human large bowel cancer cell line); experiment: Cell proliferation assay (WST-8) on RKO cells; format: cell-based
# Description: (§1) Next, the synthesized compounds were verified by WST-8 assay for their ability to suppress cancer cell proliferation.
# Cell lines of HeLa (human uterine cervical cancer cell line), LOVO, RKO and SW480 (each of which was a human large bowel cancer cell line) were each cultured at 37° C. under 5% carbon dioxide conditions using Dulbecco's modified Eagle's medium (DMEM, Nacalai Tesque, Inc., Japan) supplemented with 10% fetal bovine serum (FBS: JRH bioscience, USA), antibiotics (50 U/ml penicillin and 50 μg/ml streptomycin) and 1 mM sodium pyruvate. Single-layered cells grown to 80-90% confluency on 10 cm cell culture dishes were washed with D-PBS(−) (Nacalai Tesque, Inc., Japan) and then released from the dishes by being treated with a phenol red-containing 2.5 g/L-Trypsine/1 mmol/L EDTA solution (Nacalai Tesque, Inc., Japan). The released cells were adjusted and maintained in fresh medium.
# (§2) Each cell line seeded at 3×10^3 cells/well in a MICROTEST tissue culture plate (96 well, FALCON) was cultured at 37° C. under 5% carbon dioxide conditions for 24 hours, and then cultured in the presence of various concentrations of PI polyamide for an additional 72 hours. After completion of the culture, 10 μl of viable cell counting reagent SF (Nacalai Tesque, Inc., Japan) was added to each well and the absorbance at 450 nm was measured by ARVO EX (PerkinElmer). During the period from reagent addition until assay, incubation was continued at 37° C. in the presence of 5% CO2 until the absorbance reached about 1.2 to 2.0 in the control sample where only 50% DMSO was added to the cells.
# [3] = system: LOVO (human large bowel cancer cell line); experiment: Cell proliferation assay (WST-8) on LOVO cells; format: cell-based; details: 72 hours
# Description: as §1
# Cell lines of HeLa (human uterine cervical cancer cell line), LOVO, RKO and SW480 (each of which was a human large bowel cancer cell line) were each cultured at 37° C. under 5% carbon dioxide conditions using Dulbecco's modified Eagle's medium (DMEM, Nacalai Tesque, Inc., Japan) supplemented with 10% fetal bovine serum (FBS: JRH bioscience, USA), antibiotics (50 U/ml penicillin and 50 μg/ml streptomycin) and 1 mM sodium pyruvate. […]
# as §2
smiles,measurement,setting,value
"CN(C)CCCNC(=O)CCNC(=O)c1cc(NC(=O)c2nc(NC(=O)c3nc(NC(=O)CCNC(=O)c4cc(NC(=O)c5nc(NC(=O)CCCNC(=O)c6cc(NC(=O)c7nc(NC(=O)CCNC(=O)c8cc(NC(=O)c9cc(NC(=O)c%10nc(NC(=O)CCNC(=O)CCNC(=O)c%11ccc(NC(=O)CCCCCCC(=O)NO)cc%11)cn%10C)cn9C)cn8C)cn7C)cn6C)cn5C)cn4C)cn3C)cn2C)cn1C [SAHA+p16 PIP, SAHA-ββImPyPyβImPyγImPyβImImPyβDp]",acetylation of histone H3 lysine 9 in the genomic region of the LARP1 gene,[1],enhanced acetylation
same,enhancement of histone H3 lysine 9 acetylation in the LARP1 genomic region compared to SAHA alone or SAHA+non-targeting PIP,[1],about 2.5 fold
same,suppression of RKO cell proliferation at 100 nM,"[2]; 100 nM, 72 hours, FIG. 4",not suppressed
same,inhibition of RKO cell proliferation,"[2]; 72 hours, WST-8, FIG. 4",inhibit proliferation
same,"ability to suppress proliferation, compared among the 4 cancer cell lines (RKO)","[2]; FIG. 4, listed as p16 PIP attached to the SAHA derivative",high and lowest
same,suppression of LOVO cell proliferation at 100 nM,"[3]; 100 nM, FIG. 4",not suppressed
same,inhibition of LOVO cell proliferation,"[3]; WST-8, FIG. 4",inhibit proliferation
